Assay results from the supplement of paper PMC10307832.

Columns and labels:
Assay in all cases: relative viability (nuclei count vs DMSO), 5 days (fraction); higher = more cells survive
Avagacestat + Navitoclax = compound: NC(=O)[C@@H](CCC(F)(F)F)N(Cc1ccc(-c2ncon2)cc1F)S(=O)(=O)c1ccc(Cl)cc1 [Avagacestat] + CC1(C)CCC(c2ccc(Cl)cc2)=C(CN2CCN(c3ccc(C(=O)NS(=O)(=O)c4ccc(N[C@H](CCN5CCOCC5)CSc5ccccc5)c(S(=O)(=O)C(F)(F)F)c4)cc3)CC2)C1 [Navitoclax] (partner 0.5 µM)
In short: (§1)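 Lung cancer cell lines, seeded in 1536-well plates, were treated the following day by pin tool with a single drug or with five library-drug doses (not always all listed) in √10 steps on top of a fixed anchor-drug dose. Cells were fixed and nuclei stained in one step after 5 days, and nuclei were counted. Relative viability is the nuclei count for treated wells divided by that for vehicle wells, reported as medians of duplicate plates.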

Avagacestat + Luminespib = compound: NC(=O)[C@@H](CCC(F)(F)F)N(Cc1ccc(-c2ncon2)cc1F)S(=O)(=O)c1ccc(Cl)cc1 [Avagacestat] + CCNC(=O)c1noc(-c2cc(C(C)C)c(O)cc2O)c1-c1ccc(CN2CCOCC2)cc1 [Luminespib] (partner 0.01 µM)
In short: as §1

Avagacestat + Foretinib = compound: NC(=O)[C@@H](CCC(F)(F)F)N(Cc1ccc(-c2ncon2)cc1F)S(=O)(=O)c1ccc(Cl)cc1 [Avagacestat] + COc1cc2c(Oc3ccc(NC(=O)C4(C(=O)Nc5ccc(F)cc5)CC4)cc3F)ccnc2cc1OCCCN1CCOCC1 [Foretinib] (partner 0.25 µM)
In short: as §1

Avagacestat + Linsitinib = compound: NC(=O)[C@@H](CCC(F)(F)F)N(Cc1ccc(-c2ncon2)cc1F)S(=O)(=O)c1ccc(Cl)cc1 [Avagacestat] + C[C@]1(O)C[C@@H](c2nc(-c3ccc4ccc(-c5ccccc5)nc4c3)c3c(N)nccn32)C1 [Linsitinib] (partner 1 µM)
In short: as §1

Cell Line	relative viability (Avagacestat + Navitoclax; first compound 0.08 µM)	relative viability (Avagacestat + Navitoclax; first compound 0.253 µM)	relative viability (Avagacestat + Navitoclax; first compound 0.8 µM)	relative viability (Avagacestat + Navitoclax; first compound 2.53 µM)	relative viability (Avagacestat + Navitoclax; first compound 8 µM)	relative viability (Avagacestat + Luminespib; first compound 0.08 µM)	relative viability (Avagacestat + Luminespib; first compound 0.253 µM)	relative viability (Avagacestat + Luminespib; first compound 0.8 µM)	relative viability (Avagacestat + Luminespib; first compound 2.53 µM)	relative viability (Avagacestat + Luminespib; first compound 8 µM)	relative viability (Avagacestat + Foretinib; first compound 0.08 µM)	relative viability (Avagacestat + Foretinib; first compound 0.253 µM)	relative viability (Avagacestat + Foretinib; first compound 0.8 µM)	relative viability (Avagacestat + Foretinib; first compound 2.53 µM)	relative viability (Avagacestat + Foretinib; first compound 8 µM)	relative viability (Avagacestat + Linsitinib; first compound 0.08 µM)	relative viability (Avagacestat + Linsitinib; first compound 0.253 µM)	relative viability (Avagacestat + Linsitinib; first compound 0.8 µM)	relative viability (Avagacestat + Linsitinib; first compound 2.53 µM)	relative viability (Avagacestat + Linsitinib; first compound 8 µM)
NCI-H596	1.21	1.02	0.928	0.792	0.865	1.19	0.876	1.35	0.924	0.756	1	0.831	0.85	0.809	0.84	1.15	1.21	1	0.827	0.986
NCI-H647	1.27	1.5	1.31	1.02	0.952	0.184	0.148	0.146	0.15	0.12	1.38	1.41	1.27	1.21	1.11	1.78	1.35	1.12	1.16	1.19
NCI-H727	0.408	0.461	0.596	0.339	0.459	0.36	0.343	0.289	0.355	0.39	0.947	0.932	0.803	0.783	0.881	0.252	0.342	0.35	0.278	0.26
NCI-H838	1.55	1.52	1.31	1.06	1.13	0.363	0.256	0.233	0.254	0.191	1.1	1.35	1.07	1.01	0.944	1.25	1.26	1.09	0.89	0.918
NCI-H1355	1.14	0.999	0.923	0.768	0.833	0.769	0.717	0.797	0.635	0.641	1.11	1.24	0.961	0.846	0.785	0.95	0.859	0.812	0.687	0.651
NCI-H1395	1.12	1.23	1.03	0.903	1.11	0.806	0.836	0.567	0.799	0.662	0.981	0.946	0.903	0.899	0.846	1.11	1.1	1.04	0.869	0.881
NCI-H1437	1.39	1.22	1.1	1.04	0.979	1.4	1.28	1.12	1.17	1.05	1.42	1.41	1.27	1.23	1.11	1.65	1.14	1.19	0.955	0.721
NCI-H1651	1.28	1.33	1.3	1.07	0.764	1.09	0.931	0.726	0.719	0.852	0.899	0.884	0.895	0.847	0.596	1.37	1.17	1.05	0.854	0.828
